Reference: patent US7138361B2, “Herbicidal heterocycles” (E. I. du Pont de Nemours and Company, priority 2000, dated 2006)

Experiments:
Type in all cases: in vivo
[1] = tested on: Surinam grass (Brachiaria decumbens); assay: Test B postemergence; settings: 13 to 15 days
Excerpt: (§1) Seeds selected from barnyardgrass (Echinochloa crus-galli), Surinam grass (Brachiaria decumbens), cocklebur (Xanthium strumarium), corn (Zea mays), crabgrass (Digitaria sanguinalis), giant foxtail (Setaria faberii), lambsquarters (Chenopodium album), morning glory (Ipomoea hederacea), pigweed (Amaranthus retroflexus), rice (Oryza saliva) and velvetleaf (Abutilon theophrasti) were planted and treated preemergence with test chemicals formulated in a non-phytotoxic solvent mixture which included a surfactant.
(§2) At the same time, plants selected from these crop and weed species and also blackgrass (Alopecurus myosuroides), wheat (Triticum aestivum) and wild oat (Avena fatua) were treated with postemergence applications of test chemicals formulated in the same manner. Plants ranged in height from 2 to 18 cm (1- to 4-leaf stage) for postemergence treatments. Plant species in the flooded paddy test consisted of rice (Oryza saliva), smallflower flatsedge (Cyperus difformis), duck salad (Heteranthera limosa) and barnyardgrass (Echinochloa crus-galli) grown to the 2-leaf stage for testing. Treated plants and controls were maintained in a greenhouse for 13 to 15 days, after which time all species were compared to controls and visually evaluated. Plant response ratings, summarized in Table B, are based on a scale of 0 to 100 where 0 is no effect and 100 is complete control. A dash (-) response means no test result.

[2] = tested on: barnyardgrass (Echinochloa crus-galli); assay: Test B postemergence; settings: 13 to 15 days
Excerpt: as §1, §2

[3] = tested on: blackgrass (Alopecurus myosuroides); assay: Test B postemergence; settings: 13 to 15 days
Excerpt: as §1, §2

corn (Zea mays) [4] = assay: Test B postemergence; settings: 13 to 15 days
Excerpt: as §1, §2

[5] = tested on: crabgrass (Digitaria sanguinalis); assay: Test B postemergence; settings: 13 to 15 days
Excerpt: as §1, §2

[6] = tested on: giant foxtail (Setaria faberii); assay: Test B postemergence; settings: 13 to 15 days
Excerpt: as §1, §2

[7] = tested on: lambsquarters (Chenopodium album); assay: Test B postemergence; settings: Rate 500 g/ha, scale 0 to 100, 0 is no effect, 100 is complete control, 13 to 15 days
Excerpt: as §1, §2

[8] = tested on: morning glory (Ipomoea hederacea); assay: Test B postemergence; settings: Rate 500 g/ha, scale 0 to 100, 0 is no effect, 100 is complete control, 13 to 15 days
Excerpt: as §1, §2

[9] = tested on: pigweed (Amaranthus retroflexus); assay: Test B postemergence; settings: Rate 500 g/ha, scale 0 to 100, 0 is no effect, 100 is complete control, 13 to 15 days
Excerpt: as §1, §2

[10] = tested on: velvetleaf (Abutilon theophrasti); assay: Test B postemergence; settings: Rate 500 g/ha, scale 0 to 100, 0 is no effect, 100 is complete control, 13 to 15 days
Excerpt: as §1, §2

[11] = tested on: wheat (Triticum aestivum); assay: Test B postemergence; settings: Rate 500 g/ha, scale 0 to 100, 0 is no effect, 100 is complete control, 13 to 15 days
Excerpt: as §1, §2

wild oat (Avena fatua) = assay: Test B postemergence; settings: Rate 500 g/ha, scale 0 to 100, 0 is no effect, 100 is complete control, 13 to 15 days
Excerpt: as §1, §2

[12] = tested on: Surinam grass (Brachiaria decumbens); assay: Test B preemergence
Excerpt: as §1, §2

[13] = tested on: barnyardgrass (Echinochloa crus-galli); assay: Test B preemergence
Excerpt: as §1, §2

[14] = tested on: cocklebur (Xanthium strumarium); assay: Test B preemergence
Excerpt: as §1, §2

corn (Zea mays) [15] = assay: Test B preemergence
Excerpt: as §1, §2

[16] = tested on: crabgrass (Digitaria sanguinalis); assay: Test B preemergence
Excerpt: as §1, §2

[17] = tested on: giant foxtail (Setaria faberii); assay: Test B preemergence
Excerpt: as §1, §2

[18] = tested on: lambsquarters (Chenopodium album); assay: Test B preemergence
Excerpt: as §1, §2

[19] = tested on: morning glory (Ipomoea hederacea); assay: Test B preemergence
Excerpt: as §1, §2

[20] = tested on: pigweed (Amaranthus retroflexus); assay: Test B preemergence
Excerpt: as §1, §2

rice (Oryza saliva) [21] = assay: Test B preemergence
Excerpt: as §1, §2

[22] = tested on: velvetleaf (Abutilon theophrasti); assay: Test B preemergence
Excerpt: as §1, §2

[23] = tested on: barnyardgrass (Echinochloa crus-galli); assay: Test C flooded paddy test; settings: for Barnyardgrass plant response rating: scale 0 to 100, 0 no effect, 100 complete control
Protocol: (§3) At the same time, plants selected from these crop and weed species and also winter barley (Hordeum vulgare), blackgrass (Alopecurus myosuroides), canary grass (Phalaris minor), chickweed (Stellaria media), downy brome (Bromus tectorum), green foxtail (Setaria viridis), Italian ryegrass (Lolium multiflorum), wheat (Triticum aestivum), wild oat (Avena fatua) and windgrass (Apera spica-venti) were treated with postemergence applications of some of the test chemicals formulated in the same manner. Plants ranged in height from 2 to 18 cm (1- to 4-leaf stage) for postemergence treatments. Plant species in the flooded paddy test consisted of rice (Oryza saliva), smallflower flatsedge (Cyperus difformis), duck salad (Heteranthera limosa) and barnyardgrass (Echinochloa crus-galli) grown to the 2-leaf stage for testing. Treated plants and controls were maintained in a greenhouse for 12 to 14 days, after which time all species were compared to controls and visually evaluated. Plant response ratings, summarized in Table C, are based on a scale of 0 to 100 where 0 is no effect and 100 is complete control. A dash (-) response means no test result.

[24] = tested on: duck salad (Heteranthera limosa); assay: Test C flooded paddy test; settings: for Ducksalad plant response rating: scale 0 to 100, 0 no effect, 100 complete control
Protocol: as §3

rice (Oryza saliva) [25] = assay: Test C flooded paddy test; settings: for Rice plant response rating: scale 0 to 100, 0 no effect, 100 complete control
Protocol: as §3

[26] = tested on: smallflower flatsedge (Cyperus difformis); assay: Test C flooded paddy test; settings: for Flatsedge plant response rating: Flooded Paddy, scale 0 to 100, 0 no effect, 100 complete control; for Plant response rating, Flatsedge: scale 0 to 100 (0 no effect, 100 complete control)
Protocol: as §3

[27] = Rate 125 g/ha, scale 0 (no effect) to 100 (complete control)
[28] = Rate 500 g/ha, scale 0 to 100, 0 is no effect, 100 is complete control
[29] = Preemergence, Rate 500 g/ha, scale 0 to 100, 0 no effect, 100 complete control
[30] = preemergence, Rate 125 g/ha, scale of 0 to 100 where 0 is no effect and 100 is complete control, 13 to 15 days
[31] = flooded paddy test, Rate 62 g/ha, scale 0 to 100 (0 no effect, 100 complete control)
[32] = flooded paddy test, Rate 125 g/ha, scale 0 to 100 (0 no effect, 100 complete control)
[33] = flooded paddy test, Rate 62 g/ha
[34] = flooded paddy test, Rate 125 g/ha
[35] = Flooded Paddy, Rate 1000 g/ha, scale 0 to 100
[36] = flooded paddy test, Rate 250 g/ha, scale 0 to 100 (0 no effect, 100 complete control)
[37] = flooded paddy test, Rate 62 g/ha, visually evaluated after 12 to 14 days, 0 = no effect, 100 = complete control

CC(C)(C)c1ccn(C2CCN(c3cccc(C#N)c3)C2=O)n1 (stereo not drawn) [Compound 104]
Plant response rating, Surinam grass [1, 27]: 0
Plant response rating, Surinam grass [1, 28]: 0
Plant response rating, Barnyardgrass [2, 27]: 0
Plant response rating, Barnyardgrass [2, 28]: 0
Plant response rating, Blackgrass [3, 27]: 0
Plant response rating, Blackgrass [3, 28]: 0
Plant response rating, Corn (corn (Zea mays) [4]; [27]): 0
Plant response rating, Corn (corn (Zea mays) [4]; [28]): 0
Plant response rating, Crabgrass [5, 27]: 0
Plant response rating, Crabgrass [5, 28]: 0
Plant response rating, Foxtail, Giant [6, 27]: 0
Plant response rating, Foxtail, Giant [6, 28]: 0
Plant response rating, Lambsquarters [7]: 0
Plant response rating, Morningglory [8]: 0
Plant response rating, Pigweed [9]: 0
Plant response rating, Velvetleaf [10]: 0
Plant response rating, Wheat [11]: 0
Plant response rating, Wild Oat (wild oat (Avena fatua)): 0
Plant response rating, Surinam grass [12, 29]: 0
Plant response rating, Surinam grass [12, 30]: 0
Plant response rating, Barnyardgrass [13, 29]: 0
Plant response rating, Barnyardgrass [13, 30]: 0
Plant response rating, Cocklebur [14, 29]: 0
Plant response rating, Cocklebur [14, 30]: 0
Plant response rating, Corn (corn (Zea mays) [15]; [29]): 0
Plant response rating, Corn (corn (Zea mays) [15]; [30]): 0
Plant response rating, Crabgrass [16, 29]: 0
Plant response rating, Crabgrass [16, 30]: 0
Plant response rating, Foxtail, Giant [17, 29]: 0
Plant response rating, Foxtail, Giant [17, 30]: 0
Plant response rating, Lambsquarters [18, 29]: 100
Plant response rating, Lambsquarters [18, 30]: 100
Plant response rating, Morningglory [19, 29]: 0
Plant response rating, Morningglory [19, 30]: 0
Plant response rating, Pigweed [20, 29]: 100
Plant response rating, Pigweed [20, 30]: 70
Plant response rating, Rice (rice (Oryza saliva) [21]; [29]): 0
Plant response rating, Rice (rice (Oryza saliva) [21]; [30]): 0
Plant response rating, Velvetleaf [22, 29]: 0
Plant response rating, Velvetleaf [22, 30]: 0
Barnyardgrass plant response rating ([23]; Flooded Paddy, Rate 250 g/ha): 0
Barnyardgrass plant response rating ([23]; Flooded Paddy, Rate 500 g/ha): 0
Plant response rating, Barnyardgrass [23, 31]: 0
Plant response rating, Barnyardgrass [23, 32]: 0
Ducksalad plant response rating ([24]; Flooded Paddy, Rate 250 g/ha): 0
Ducksalad plant response rating ([24]; Flooded Paddy, Rate 500 g/ha): 0
Plant response rating, Ducksalad [24, 31]: 0
Plant response rating, Ducksalad [24, 32]: 0
Rice plant response rating (rice (Oryza saliva) [25]; Flooded Paddy, Rate 250 g/ha): 0
Rice plant response rating (rice (Oryza saliva) [25]; Flooded Paddy, Rate 500 g/ha): 0
Plant response rating, Rice (rice (Oryza saliva) [25]; [31]): 0
Plant response rating, Rice (rice (Oryza saliva) [25]; [32]): 0
Flatsedge plant response rating ([26]; Rate 250 g/ha): 0
Flatsedge plant response rating ([26]; Rate 500 g/ha): 0
Plant response rating, Flatsedge [26, 33]: 0
Plant response rating, Flatsedge [26, 34]: 0

CC(C)(C)C1=NN(C2CCN(c3cccc(C(F)(F)F)c3)C2=O)CC1 (stereo not drawn) [Compound 135]
Plant response rating, Barnyardgrass [23, 35]: 30
Barnyardgrass plant response rating ([23]; Flooded Paddy, Rate 500 g/ha): 20
Plant response rating, Barnyardgrass [23, 32]: 0
Plant response rating, Barnyardgrass [23, 36]: 0
Plant response rating (scale 0 to 100), Barnyardgrass [23, 37]: 0
Plant response rating, Ducksalad [24, 35]: 30
Ducksalad plant response rating ([24]; Flooded Paddy, Rate 500 g/ha): 0
Plant response rating, Ducksalad [24, 32]: 0
Plant response rating, Ducksalad [24, 36]: 0
Plant response rating (scale 0 to 100), Ducksalad [24, 37]: 0
Plant response rating, Rice (rice (Oryza saliva) [25]; [35]): 0
Rice plant response rating (rice (Oryza saliva) [25]; Flooded Paddy, Rate 500 g/ha): 0
Plant response rating, Rice (rice (Oryza saliva) [25]; [32]): 0
Plant response rating, Rice (rice (Oryza saliva) [25]; [36]): 0
Plant response rating (scale 0 to 100), Rice (rice (Oryza saliva) [25]; [37]): 0
Flatsedge plant response rating ([26]; Rate 500 g/ha): 90
Flatsedge plant response rating ([26]; rate of this column group stands in head line r653, not shown (group before Rate 500 g/ha)): 100
Plant response rating, Flatsedge [26, 34]: 20
Plant response rating, Flatsedge ([26]; flooded paddy test, Rate 250 g/ha): 90
Plant response rating (scale 0 to 100), Flatsedge [26, 37]: 0

CCCCC(C)c1ccn(C2OCN(c3cccc(OC(F)(F)F)c3)C2=O)n1 (stereo not drawn) [Compound 97]
Plant response rating, Surinam grass [1, 27]: 0
Plant response rating, Barnyardgrass [2, 27]: 0
Plant response rating, Blackgrass [3, 27]: 0
Plant response rating, Corn (corn (Zea mays) [4]; [27]): 0
Plant response rating, Crabgrass [5, 27]: 0
Plant response rating, Foxtail, Giant [6, 27]: 0
Plant response rating, Surinam grass [12, 30]: 0
Plant response rating, Barnyardgrass [13, 30]: 30
Plant response rating, Cocklebur [14, 30]: 0
Plant response rating, Corn (corn (Zea mays) [15]; [30]): 0
Plant response rating, Crabgrass [16, 30]: 20
Plant response rating, Foxtail, Giant [17, 30]: 20
Plant response rating, Lambsquarters [18, 30]: 20
Plant response rating, Morningglory [19, 30]: 0
Plant response rating, Pigweed [20, 30]: 0
Plant response rating, Rice (rice (Oryza saliva) [21]; [30]): 0
Plant response rating, Velvetleaf [22, 30]: 0
Barnyardgrass plant response rating ([23]; Flooded Paddy, Rate 500 g/ha): 100
Plant response rating, Barnyardgrass [23, 31]: 0
Plant response rating, Barnyardgrass [23, 32]: 40
Ducksalad plant response rating ([24]; Flooded Paddy, Rate 500 g/ha): 0
Plant response rating, Ducksalad [24, 31]: 0
Plant response rating, Ducksalad [24, 32]: 0
Rice plant response rating (rice (Oryza saliva) [25]; Flooded Paddy, Rate 500 g/ha): 20
Plant response rating, Rice (rice (Oryza saliva) [25]; [31]): 0
Plant response rating, Rice (rice (Oryza saliva) [25]; [32]): 20
Flatsedge plant response rating ([26]; Rate 500 g/ha): 90
Plant response rating, Flatsedge [26, 33]: 30
Plant response rating, Flatsedge [26, 34]: 90
